Data: patent EP3409293B1, “COMPLEXES COMPRISING PHOSPHOLIPIDS, WATER-SOLUBLE DEXTRIN FIBERS AND ANTIOXIDANT ACTIVE PRINCIPLES OF NATURAL ORIGIN, THEIR PREPARATION AND USE IN ORAL FORMULATIONS” (UNIVERSITA' DEGLI STUDI DI CAGLIARI, priority 2017, dated 2018)

What was measured:
[1] = Ascorbic acid release from vesicles by dialysis at pH 2 and pH 7; format: physicochemical; conditions: 37 °C
Method: The velocity (concentration as a function of time) at which the ascorbic acid is released from the vesicles as a function of pH (2 and 7) was measured as well. The dispersions (1 mL) were transferred into dialysis tubes Spectra-Por (300 kDa Float-A-Lyzer G2) immersed in 50 mL of a solution of HCl 0.1 M (pH 2), or in 50 mL of PBS (Phosphate Buffered Saline at pH 7), and maintained at 37 °C under constant stirring for 2 hours at pH 2 and for 6 hours at pH 7. A percentage of the sample was removed at predefined time intervals, and the ascorbic acid concentration was measured with a UV spectrophotometer. […] As aforementioned, release studies were carried out in order to evaluate the ability of the lamellar vesicles to retain and protect the ascorbic acid during the passage through the stomach (pH 2) and/or to retain/protect the same at the neutral pH of the intestine. […] The nutriosomes of the present invention, with or without the additional polymer HPMC, release a quantity of less than 20% after 20 minutes; subsequently, the HPMC-nutriosomes release the lowest percentage, ~40%, after 120 minutes.

[2] = tested on: Caco2; assay: Biocompatibility on Caco2 cells, 48 hours, MTT (curcumin, EU-nutriosomes); format: cell-based, human; conditions: Caco2, 48 hours, higher dilutions; % of untreated cells
Method: The biocompatibility of curcumin in dispersion or carried in liposomes or EU-nutriosomes was measured by treating intestinal cells (Caco2) with the vesicular formulations at different dilutions for 48 hours. At the end of this incubation period, cell viability was measured by MTT test, and was expressed as a percentage with respect to the untreated cells (negative control). The results are shown in the annexed Figure 13. At the lowest dilution (10 µg/mL of curcumin), viability is ~75%, regardless of the tested sample; at higher dilutions, the viability of the cells treated with curcumin in dispersion remains around 80%, while that of the cells treated with the nutriosomes is greater (~105%) and equal to that of the reference liposomes, which are generally known to be a non-toxic and biocompatible carrier. Probably all vesicular systems are capable of modulating the curcumin uptake within the cells, thereby reducing any toxic effect thereof. By using a non-toxic dilution (1 µg/mL of curcumin), we studied the ability of the formulations to promote the antioxidizing efficacy of the polyphenol. As shown in the previous example, the cells were stressed with hydrogen peroxide and simultaneously treated with curcumin in dispersion or incorporated in the vesicles (see annexed Figure 14). […]

[3] = Plasmatic concentration of curcumin in rats after gavage; format: in vivo, WISTAR male rats; conditions: 2 mL containing 20 mg/mL of curcumin, during the 8 hours of study
Method: Curcumin in dispersion or carried in liposomes or nutriosomes was administered to rats in vivo, and both the local accumulation and the plasmatic concentration were measured. The experiments were conducted by using WISTAR male rats (8-12 weeks of age and 230-250 g). The animals were treated in accordance with the European Union regulations concerning the use of laboratory animals. The protocols have been approved by the Istitutional Animal Care and Use Committee of the University of Valencia (Spain). Throughout the length of the study, the animals were kept in a thermally conditioned chamber, with a light/dark cycle of 12 hours and free access to water and food. […] In order to measure the quantity of curcumin accumulated in the intestine, the rats were sacrificed 4 hours after administration, and the gastrointestinal apparatus was removed and divided into the different segments. […]
In order to quantify a plasmatic concentration of curcumin when administering the aqueous dispersion, it was necessary to double the concentration; therefore, 2 mL of dispersion were administered, containing 20 mg/mL of curcumin instead of 10 mg/mL as in liposomes and nutriosomes (Figure 10). Notwithstanding this, the measured plasmatic concentration is always very low, i.e. ∼10 ng/mL during the 8 hours of study. […]

[4] = tested on: Caco2 cells; assay: Protection of Caco2 cells against hydrogen peroxide oxidative damage (MTT), curcumin formulations; format: cell-based, human; conditions: Caco2 cells treated with hydrogen peroxide and simultaneously with curcumin formulation, 4 hours; % of untreated cells
Method: A study was carried out to evaluate the in vitro ability of the nutriosomes to improve the protective efficacy of curcumin against the oxidative damage induced in Caco2 cells by hydrogen peroxide (Figure 8). The cells were sown in 96-well plates and incubated at 37 °C in an atmosphere with 5% CO2 for the period necessary for achieving confluence. As a negative control, cells maintained in optimal growth conditions and not treated either with hydrogen peroxide or with curcumin were used; as a positive control, cells maintained in optimal growth conditions and treated with hydrogen peroxide, but not treated with curcumin, were used. The other cells were treated with hydrogen peroxide and, simultaneously, with curcumin in aqueous dispersion or carried in liposomes, nutriosomes and HPMC-nutriosomes. The cells were incubated for 4 hours, washed with PBS, and then cell survival was measured by means of a colorimetric test with tetrazolium salt, 3-(4,5-dimethylthiazol-2-yl)-2,5-diphenyltetrazolium bromide (MTT) (see annexed Figure 8). Cell viability was calculated as a percentage of the viability of the untreated cells (negative control).

Row | ascorbic acid released ([1]; pH 2 (HCl 0.1 M), after 20 minutes) | ascorbic acid released ([1]; pH 7 (PBS), after 1 hour) | plasmatic concentration of curcumin [3] | SMILES | cell viability [2] | cell viability [4]
1 | approximately 80% | about 80% | – | O=C1O[C@H]([C@@H](O)CO)C(O)=C1O [aqueous solution, ascorbic acid] | – | –
2 | – | – | ~10 ng/mL | COc1cc(C=CC(=O)CC(=O)C=Cc2ccc(O)c(OC)c2)ccc1O [curcumin in aqueous dispersion, 1,7-Bis(4-hydroxy-3-methoxyphenyl)hepta-1,6-diene-3,5-dione] | around 80% | ~ 69%
